Key:
Format in all cases: in vivo
[1] = tested on: Surinam grass (Brachiaria decumbens); assay: Test B postemergence; details: 13 to 15 days
Procedure, shortened: (§1)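 Visual injury scores, 0 = no effect to 100 = complete control, assigned against controls after 13 to 15 days in the greenhouse. Compounds formulated in non-phytotoxic solvent plus surfactant and applied to soil after planting (pre) or onto foliage of 1- to 4-leaf plants (post).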

[2] = tested on: barnyardgrass (Echinochloa crus-galli); assay: Test B postemergence; details: 13 to 15 days
Procedure, shortened: as §1

[3] = tested on: blackgrass (Alopecurus myosuroides); assay: Test B postemergence; details: 13 to 15 days
Procedure, shortened: as §1

[4] = tested on: cocklebur (Xanthium strumarium); assay: Test B postemergence; details: 13 to 15 days
Procedure, shortened: as §1

corn (Zea mays) [5] = assay: Test B postemergence; details: 13 to 15 days
Procedure, shortened: as §1

[6] = tested on: crabgrass (Digitaria sanguinalis); assay: Test B postemergence; details: 13 to 15 days
Procedure, shortened: as §1

[7] = tested on: giant foxtail (Setaria faberii); assay: Test B postemergence; details: 13 to 15 days
Procedure, shortened: as §1

[8] = tested on: lambsquarters (Chenopodium album); assay: Test B postemergence; details: 13 to 15 days
Procedure, shortened: as §1

[9] = tested on: morning glory (Ipomoea hederacea); assay: Test B postemergence; details: 13 to 15 days
Procedure, shortened: as §1

[10] = tested on: pigweed (Amaranthus retroflexus); assay: Test B postemergence; details: 13 to 15 days
Procedure, shortened: as §1

[11] = tested on: velvetleaf (Abutilon theophrasti); assay: Test B postemergence; details: 13 to 15 days
Procedure, shortened: as §1

[12] = tested on: wheat (Triticum aestivum); assay: Test B postemergence; details: 13 to 15 days
Procedure, shortened: as §1

wild oat (Avena fatua) = assay: Test B postemergence; details: 13 to 15 days
Procedure, shortened: as §1

[13] = tested on: Surinam grass (Brachiaria decumbens); assay: Test B preemergence
Procedure, shortened: as §1

[14] = tested on: barnyardgrass (Echinochloa crus-galli); assay: Test B preemergence
Procedure, shortened: as §1

[15] = tested on: cocklebur (Xanthium strumarium); assay: Test B preemergence
Procedure, shortened: as §1

corn (Zea mays) [16] = assay: Test B preemergence
Procedure, shortened: as §1

[17] = tested on: crabgrass (Digitaria sanguinalis); assay: Test B preemergence
Procedure, shortened: as §1

[18] = tested on: giant foxtail (Setaria faberii); assay: Test B preemergence
Procedure, shortened: as §1

[19] = tested on: lambsquarters (Chenopodium album); assay: Test B preemergence
Procedure, shortened: as §1

[20] = tested on: morning glory (Ipomoea hederacea); assay: Test B preemergence
Procedure, shortened: as §1

[21] = tested on: pigweed (Amaranthus retroflexus); assay: Test B preemergence
Procedure, shortened: as §1

rice (Oryza saliva) = assay: Test B preemergence
Procedure, shortened: as §1

[22] = tested on: velvetleaf (Abutilon theophrasti); assay: Test B preemergence
Procedure, shortened: as §1

[23] = tested on: smallflower flatsedge (Cyperus difformis); assay: Test C flooded paddy test; details: for Flatsedge plant response rating: Flooded Paddy, scale 0 to 100, 0 no effect, 100 complete control; for Plant response rating, Flatsedge: flooded paddy test, scale 0 to 100 (0 no effect, 100 complete control)
Procedure, shortened: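 2-leaf-stage plants, flooded paddy; treated; greenhouse 12–14 days; compared with controls by eye; rated 0–100 (0 none, 100 complete control).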

Sunflower [24] = assay: Test C preemergence; details: Rate 500 g/ha, visual evaluation after 12 to 14 days
Sunflower [25] = assay: Test C preemergence; details: Rate 250 g/ha, scale 0 to 100, 0 no effect, 100 complete control
[26] = Rate 125 g/ha, scale 0 (no effect) to 100 (complete control)
[27] = Rate 500 g/ha, scale 0 to 100, 0 is no effect, 100 is complete control
[28] = Preemergence, Rate 500 g/ha, scale 0 to 100, 0 no effect, 100 complete control
[29] = preemergence, Rate 125 g/ha, scale of 0 to 100 where 0 is no effect and 100 is complete control, 13 to 15 days

CC(C)(C)c1ccn(C2CCN(c3cccc(OC(F)F)c3)C2=O)n1 (stereo not drawn) [Compound 76]
Plant response rating, Surinam grass [1, 26]: 0 | Plant response rating, Surinam grass [1, 27]: 10 | Plant response rating, Barnyardgrass [2, 26]: 0 | Plant response rating, Barnyardgrass [2, 27]: 90 | Plant response rating, Blackgrass [3, 26]: 0 | Plant response rating, Blackgrass [3, 27]: 0 | Plant response rating, Cocklebur [4, 26]: 0 | Plant response rating, Cocklebur [4, 27]: 20 | Plant response rating, Corn (corn (Zea mays) [5]; [26]): 0 | Plant response rating, Corn (corn (Zea mays) [5]; [27]): 0 | Plant response rating, Crabgrass [6, 26]: 0 | Plant response rating, Crabgrass [6, 27]: 40 | Plant response rating, Foxtail, Giant [7, 26]: 0 | Plant response rating, Foxtail, Giant [7, 27]: 30 | Plant response rating, Lambsquarters [8, 26]: 0 | Plant response rating, Lambsquarters [8, 27]: 40 | Plant response rating, Morningglory [9, 26]: 0 | Plant response rating, Morningglory [9, 27]: 20 | Plant response rating, Pigweed [10, 26]: 30 | Plant response rating, Pigweed [10, 27]: 80 | Plant response rating, Velvetleaf [11, 26]: 0 | Plant response rating, Velvetleaf [11, 27]: 0 | Plant response rating, Wheat [12, 26]: 0 | Plant response rating, Wheat [12, 27]: 0 | Plant response rating, Wild Oat (wild oat (Avena fatua); [26]): 0 | Plant response rating, Wild Oat (wild oat (Avena fatua); [27]): 0 | Plant response rating, Surinam grass [13, 28]: 100 | Plant response rating, Surinam grass [13, 29]: 80 | Plant response rating, Barnyardgrass [14, 28]: 100 | Plant response rating, Barnyardgrass [14, 29]: 100 | Plant response rating, Cocklebur [15, 28]: 0 | Plant response rating, Cocklebur [15, 29]: 0 | Plant response rating, Corn (corn (Zea mays) [16]; [28]): 70 | Plant response rating, Corn (corn (Zea mays) [16]; [29]): 0 | Plant response rating, Crabgrass [17, 28]: 100 | Plant response rating, Crabgrass [17, 29]: 100 | Plant response rating, Foxtail, Giant [18, 28]: 100 | Plant response rating, Foxtail, Giant [18, 29]: 100 | Plant response rating, Lambsquarters [19, 28]: 100 | Plant response rating, Lambsquarters [19, 29]: 100 | Plant response rating, Morningglory [20, 28]: 100 | Plant response rating, Morningglory [20, 29]: 0 | Plant response rating, Pigweed [21, 28]: 100 | Plant response rating, Pigweed [21, 29]: 100 | Plant response rating, Rice (rice (Oryza saliva); [28]): 90 | Plant response rating, Rice (rice (Oryza saliva); [29]): 70 | Plant response rating, Velvetleaf [22, 28]: 0 | Plant response rating, Velvetleaf [22, 29]: 0 | Flatsedge plant response rating ([23]; Rate 250 g/ha): 90 | Flatsedge plant response rating ([23]; Rate 500 g/ha): 90 | Plant response rating, Flatsedge ([23]; Rate 62 g/ha): 90 | Plant response rating, Flatsedge ([23]; Rate 125 g/ha): 90 | Plant response rating (0 to 100), Sunflower (Sunflower [24]): 30 | Plant response rating, Sunflower (Sunflower [25]): 30

Cc1ccc(N2CCC(n3ccc(C(C)(C)C)n3)C2=O)cc1OC(F)F (stereo not drawn) [Compound 79]
Plant response rating, Surinam grass [1, 26]: 0 | Plant response rating, Surinam grass [1, 27]: 0 | Plant response rating, Barnyardgrass [2, 26]: 0 | Plant response rating, Barnyardgrass [2, 27]: 0 | Plant response rating, Blackgrass [3, 26]: 0 | Plant response rating, Blackgrass [3, 27]: 0 | Plant response rating, Cocklebur [4, 26]: 30 | Plant response rating, Cocklebur [4, 27]: 30 | Plant response rating, Corn (corn (Zea mays) [5]; [26]): 0 | Plant response rating, Corn (corn (Zea mays) [5]; [27]): 0 | Plant response rating, Crabgrass [6, 26]: 0 | Plant response rating, Crabgrass [6, 27]: 0 | Plant response rating, Foxtail, Giant [7, 26]: 0 | Plant response rating, Foxtail, Giant [7, 27]: 0 | Plant response rating, Lambsquarters [8, 26]: 0 | Plant response rating, Lambsquarters [8, 27]: 10 | Plant response rating, Morningglory [9, 26]: 30 | Plant response rating, Morningglory [9, 27]: 40 | Plant response rating, Pigweed [10, 26]: 70 | Plant response rating, Pigweed [10, 27]: 70 | Plant response rating, Velvetleaf [11, 26]: 0 | Plant response rating, Velvetleaf [11, 27]: 0 | Plant response rating, Wheat [12, 26]: 0 | Plant response rating, Wheat [12, 27]: 0 | Plant response rating, Wild Oat (wild oat (Avena fatua); [26]): 0 | Plant response rating, Wild Oat (wild oat (Avena fatua); [27]): 0 | Plant response rating, Surinam grass [13, 28]: 90 | Plant response rating, Surinam grass [13, 29]: 70 | Plant response rating, Barnyardgrass [14, 28]: 100 | Plant response rating, Barnyardgrass [14, 29]: 70 | Plant response rating, Cocklebur [15, 28]: 0 | Plant response rating, Cocklebur [15, 29]: 0 | Plant response rating, Corn (corn (Zea mays) [16]; [28]): 0 | Plant response rating, Corn (corn (Zea mays) [16]; [29]): 0 | Plant response rating, Crabgrass [17, 28]: 100 | Plant response rating, Crabgrass [17, 29]: 100 | Plant response rating, Foxtail, Giant [18, 28]: 60 | Plant response rating, Foxtail, Giant [18, 29]: 0 | Plant response rating, Lambsquarters [19, 28]: 100 | Plant response rating, Lambsquarters [19, 29]: 100 | Plant response rating, Morningglory [20, 28]: 100 | Plant response rating, Morningglory [20, 29]: 0 | Plant response rating, Pigweed [21, 28]: 100 | Plant response rating, Pigweed [21, 29]: 100 | Plant response rating, Rice (rice (Oryza saliva); [28]): 90 | Plant response rating, Rice (rice (Oryza saliva); [29]): 50 | Plant response rating, Velvetleaf [22, 28]: 90 | Plant response rating, Velvetleaf [22, 29]: 0 | Flatsedge plant response rating ([23]; Rate 250 g/ha): 90 | Flatsedge plant response rating ([23]; Rate 500 g/ha): 90 | Plant response rating, Flatsedge ([23]; Rate 62 g/ha): 90 | Plant response rating, Flatsedge ([23]; Rate 125 g/ha): 90 | Plant response rating (0 to 100), Sunflower (Sunflower [24]): 60 | Plant response rating, Sunflower (Sunflower [25]): 50

CCC(C)c1ccn(C2CCN(c3ccc(C)c(OC)c3)C2=O)n1 (stereo not drawn) [Compound 80]
Plant response rating, Surinam grass [1, 26]: 0 | Plant response rating, Surinam grass [1, 27]: 0 | Plant response rating, Barnyardgrass [2, 26]: 0 | Plant response rating, Barnyardgrass [2, 27]: 10 | Plant response rating, Blackgrass [3, 26]: 0 | Plant response rating, Blackgrass [3, 27]: 0 | Plant response rating, Cocklebur [4, 26]: 70 | Plant response rating, Cocklebur [4, 27]: 80 | Plant response rating, Corn (corn (Zea mays) [5]; [26]): 0 | Plant response rating, Corn (corn (Zea mays) [5]; [27]): 0 | Plant response rating, Crabgrass [6, 26]: 0 | Plant response rating, Crabgrass [6, 27]: 40 | Plant response rating, Foxtail, Giant [7, 26]: 0 | Plant response rating, Foxtail, Giant [7, 27]: 0 | Plant response rating, Lambsquarters [8, 26]: 10 | Plant response rating, Lambsquarters [8, 27]: 90 | Plant response rating, Morningglory [9, 26]: 40 | Plant response rating, Morningglory [9, 27]: 90 | Plant response rating, Pigweed [10, 26]: 70 | Plant response rating, Pigweed [10, 27]: 80 | Plant response rating, Velvetleaf [11, 26]: 40 | Plant response rating, Velvetleaf [11, 27]: 70 | Plant response rating, Wheat [12, 26]: 0 | Plant response rating, Wheat [12, 27]: 0 | Plant response rating, Wild Oat (wild oat (Avena fatua); [26]): 0 | Plant response rating, Wild Oat (wild oat (Avena fatua); [27]): 0 | Plant response rating, Surinam grass [13, 28]: 90 | Plant response rating, Surinam grass [13, 29]: 80 | Plant response rating, Barnyardgrass [14, 28]: 100 | Plant response rating, Barnyardgrass [14, 29]: 0 | Plant response rating, Cocklebur [15, 28]: 0 | Plant response rating, Cocklebur [15, 29]: 0 | Plant response rating, Corn (corn (Zea mays) [16]; [28]): 20 | Plant response rating, Corn (corn (Zea mays) [16]; [29]): 0 | Plant response rating, Crabgrass [17, 28]: 100 | Plant response rating, Crabgrass [17, 29]: 100 | Plant response rating, Foxtail, Giant [18, 28]: 100 | Plant response rating, Foxtail, Giant [18, 29]: 100 | Plant response rating, Lambsquarters [19, 28]: 100 | Plant response rating, Lambsquarters [19, 29]: 100 | Plant response rating, Morningglory [20, 28]: 100 | Plant response rating, Morningglory [20, 29]: 60 | Plant response rating, Pigweed [21, 28]: 100 | Plant response rating, Pigweed [21, 29]: 100 | Plant response rating, Rice (rice (Oryza saliva); [28]): 90 | Plant response rating, Rice (rice (Oryza saliva); [29]): 60 | Plant response rating, Velvetleaf [22, 28]: 70 | Plant response rating, Velvetleaf [22, 29]: 0 | Flatsedge plant response rating ([23]; Rate 250 g/ha): 90 | Flatsedge plant response rating ([23]; Rate 500 g/ha): 100 | Plant response rating, Flatsedge ([23]; Rate 62 g/ha): 90 | Plant response rating, Flatsedge ([23]; Rate 125 g/ha): 90 | Plant response rating (0 to 100), Sunflower (Sunflower [24]): 60 | Plant response rating, Sunflower (Sunflower [25]): 60
